Results on seven compounds are retold here after patent publication US9352015B2, “Antimicrobial peptides” (priority 2009, dated 2016).

By HC50 is commonly meant the concentration giving 50% haemolysis.

Data set [1] relates to Methicillin Resistant Staphylococcus aureus (MRSA) and Staphylococcus aureus. The data set is classed as cell-based. As for the experimental part: (§1) Minimal inhibitory concentrations (MICs) are determined using a standard microtiter dilution method, with 3 sets of determinations, in LB (Luria-Bertani) no-salt medium (10 g of tryptone and 5 g of yeast extract per liter). In some cases, Mueller Hinton (MH) medium or Brain Heart Infusion (BHI) medium is used.
(§2) Briefly, cells were grown overnight at 37° C. in LB and diluted in the same medium. Serial dilutions of the peptides are added to the microtiter plates in a volume of 100 μl followed by 10 μl of bacteria to give a final inoculum of 5×10^5 colony-forming units/ml. Plates are incubated at 37° C. for 24 hours and MICs determined as the lowest peptide concentration that inhibited growth. Alternatively, minimal inhibitory concentrations are determined using a standard microtiter dilution method in a Mueller-Hinton (MH) medium. Briefly, cells are grown overnight at 37° C. in MH broth and diluted in the same medium. In some cases, serial dilutions of the peptides are added to the microtiter plates in a volume of 100 μl followed by 10 μl of bacteria to give a final inoculum of 1×10^5 colony-forming units/ml. Plates are incubated at 37° C. for 24 hours and MICs are determined as the lowest peptide concentration that inhibited growth.
Identification of Antimicrobial Peptides for Gram-positive Bacteria. In a manner similar to testing against gram-negative bacteria, experiments were carried out to screen the 14 peptides used to identify antimicrobial peptides with significant activity against A. baumanii shown above against 20 different clinical isolates of Methicillin Resistant Staphylococcus aureus (MRSA) and Staphylococcus aureus.

Data set [2] relates to Pseudomonas aeruginosa. The conditions noted are these: for MIC PAO 1: 37° C., 24 h, strain PAO1; for MIC GM (geometric mean of the MIC values): six P. aeruginosa strains; for MIC CP 204: strain CP204; for MIC M 2: strain M2; for MIC PA 14: strain PA14; for MIC PAK: strain PAK; for MIC WR 5: strain WR5; for Pseudomonas aeruginosa MICGM: geometric mean, 6 different isolates, 24 hours at 37° C.

A short description of data set [3]: Hemolytic activity against human erythrocytes (HC50 / MHC, microtiter dilution). It counts as cell-based. The conditions noted are these: human, 1% human erythrocytes, pH 7.4. On the procedure: Hemoglobin release was determined spectrophotometrically at 570 nm. The hemolytic activity was determined as the peptide concentration that caused 50% hemolysis of erythrocytes after 18 h (HC50). […] HC50 was determined by a plot of peptide concentration versus percent lysis.

The subject of data set [4] is Acinetobacter baumannii. The data set is classed as cell-based. The conditions noted are these: for Acinetobacter baumannii MICGM: geometric mean, 11 different isolates, 24 hours at 37° C. On the procedure: as §1, §2
The biological activities of these six peptide analogs was determined against 11 clinical isolated of Acinetobacter baumannii (Table 9). Please note that the activities are reported in micromolar rather than microgram/ml. This allows a direct comparison on a molar basis with the effectiveness of molecules of different molecular weights whether peptides disclosed herein or antibiotics which in general are smaller in molecular mass. […] These are the highest antimicrobial activities observed in studies of antimicrobial peptides derived by modifying the peptide sequence of SEQ ID NO:24 (D1). D22 has the best hemolytic activity of the six analogs (D17-D22) and a therapeutic index of […] compared to […] for D1 (Table 9). D22 has no apparent advantage over D1 as determined in these experiments.

The nature of data set [5]: RP-HPLC retention as measure of overall peptide hydrophobicity. The conditions noted are these: for Change in hydrophobicity (retention time) relative to PVL: 80° C., polar face substitution. It counts as physicochemical. On the procedure: Crude and purified peptides were analyzed on an Agilent 1100 series liquid chromatograph (Little Falls, Del.). Runs were performed on a Zorbax 300 SB-C8 column (150×2.1 mm I.D.; 5 μm particle size, 300 Å pore size) from Agilent Technologies using linear AB gradient (1% acetonitrile/min) and a flow rate of 0.25 ml/min, where eluant A was 0.2% aqueous TFA, pH 2 and eluant B was 0.2% TFA in acetonitrile.

A short description of data set [6]: RP-HPLC temperature profiling (peptide self-association parameter PA). It counts as physicochemical. The conditions noted are these: enantiomer pairs of V681 analogs, 5° C. to 80° C., relative to peptide C. As for the experimental part:
Temperature profiling analyses were performed on the same column in 3° C. increments, from 5° C. to 80° C., using a linear AB gradient of 0.5% acetonitrile/min, as described previously (30, 53, 92, 93).
Peptide self-association (i.e., the ability to oligomerize/dimerize) in aqueous solution is a very important parameter for antimicrobial activity (53, 92, 93). Without wishing to be bound by any particular theory, the present inventors postulated that monomeric random-coil antimicrobial peptides are best suited to pass through the capsule and cell wall of microorganisms prior to penetration into the cytoplasmic membrane, induction of α-helical structure and disruption of membrane structure to kill target cells (93). Thus, if the self-association ability of a peptide in aqueous media is too strong (e.g., forming stable folded dimers through interaction of their non-polar faces) this could decrease the ability of the peptide to dissociate to monomer, in addition oligomerization of the peptide can prevent it from effectively passing through the capsule and cell wall to reach the membrane. The ability of the peptides in the present study to self-associate was determined by the technique of RP-HPLC temperature profiling at pH 2 (29, 30, 38). The reason pH 2 is used to determine self-association of cationic AMPs is that highly positively charged peptides are frequently not eluted from reversed-phase columns at pH 7 due to non-specific binding to negatively charged silanols on the column matrix. This is not a problem at pH 2 since the silanols are protonated (i.e., neutral) and non-specific electrostatic interactions are eliminated. At pH 2, the interactions between the peptide and the reversed-phase matrix involve ideal retention behavior, i.e., only hydrophobic interactions between the preferred binding domain (nonpolar face) of the amphipathic molecule and the hydrophobic surface of the column matrix are present (39). […] Control peptide C is a monomeric random coil peptide in both aqueous and hydrophobic media; thus, its linear decrease in peptide retention behavior with increasing temperature within the range of 5° C. to 80° C. represents only the general effects of temperature due to greater solute diffusivity and enhanced mass transfer between the stationary and mobile phase at higher temperatures (55). To allow for these general temperature effects, the data for the control peptide was subtracted from each temperature profile as shown in FIG. 2B. Thus, the peptide self-association parameter, PA, represents the maximum change in peptide retention time relative to the random coil peptide C. Note that the higher the PA value, the greater the self-association.

Values after ≈ are worked out from the molar mass of the structure shown. Values joined by “and” are separate entries in the source; they are usually repeats but may differ in a detail not shown here. Identical values can stand only once. Like-named read-outs stand apart in the source and are kept apart here.

For `CC[C@@H](C)[C@@H](NC(=O)[C@@H](CC(C)C)NC(=O)[C@@H](CCCCN)NC(=O)[C@@H](CC(C)C)NC(=O)[C@@H](CC(C)C)NC(=O)[C@H](NC(=O)[C@@H](Cc1c[nH]cn1)NC(=O)[C@@H](CC(C)C)NC(=O)[C@@H](CCCCN)NC(=O)[C@H](NC(=O)[C@@H](CCCCN)NC(=O)[C@@H](CCCCN)NC(=O)[C@@H](CC(C)C)NC(=O)[C@@H](CO)NC(=O)[C@@H](CCCCN)NC(=O)[C@@H](Cc1ccccc1)NC(=O)[C@H](NC(=O)[C@@H](CCCCN)NC(=O)[C@@H](CC(C)C)NC(=O)[C@@H](Cc1ccccc1)NC(=O)[C@@H](CO)NC(=O)[C@@H](CCCCN)NC(=O)[C@@H](Cc1c[nH]c2ccccc12)NC(=O)[C@@H](CCCCN)NC(C)=O)[C@H](C)O)[C@H](C)O)[C@H](C)O)C(=O)N[C@H](CO)C(=O)N[C@H](CO)C(N)=O` [Peptide D5, Ac-KWKSFLKTFKSLKKTKLHTLLKLISS-amide], the “MIC GM (geometric mean)” value in data set [1] was 5.4 µM (≈ 17 µg/mL). Further, in data set [2] (Brain Heart Infusion medium), the “MIC PAO 1” value worked out at 31.3 µg/mL (≈ 9.95 µM), the “MIC GM (geometric mean of the MIC values)” value worked out at 22.1 µg/mL, the “MIC CP 204” value stood at 31.3 µg/mL (≈ 9.95 µM) and the “MIC M 2” value was 15.6 µg/mL (≈ 4.96 µM). In data set [2] (Brain Heart Infusion medium), the “MIC PA 14” value worked out at 15.6 µg/mL (≈ 4.96 µM), the “MIC PAK” value is 31.3 µg/mL (≈ 9.95 µM) and the “MIC WR 5” value was determined as 15.6 µg/mL (≈ 4.96 µM). Moreover, in data set [2] (Mueller Hinton medium), the “MIC PAO 1” value was determined as 7.8 µg/mL (≈ 2.48 µM), the “MIC GM (geometric mean of the MIC values)” value was 11.0 µg/mL, the “MIC CP 204” value was determined as 15.6 µg/mL (≈ 4.96 µM) and the “MIC M 2” value is 7.8 µg/mL (≈ 2.48 µM). For the same compound, in data set [2] (Mueller Hinton medium), the “MIC PA 14” value was found to be 7.8 µg/mL (≈ 2.48 µM), the “MIC PAK” value came out at 15.6 µg/mL (≈ 4.96 µM) and the “MIC WR 5” value was 15.6 µg/mL (≈ 4.96 µM). For the same compound, the Pseudomonas aeruginosa MICGM in data set [2] amounted to 3.5 µM. Further, the HC50 at 18 h in data set [3] was 47 µg/mL and 14.9 µM. Moreover, in data set [4], the “MIC GM (geometric mean)” value was 1.7 µM (≈ 5.35 µg/mL) and the Acinetobacter baumannii MICGM worked out at 1.7 µM. In addition, in data set [5] (pH 2, room temperature), the “Hydrophobicity (retention time in RP-HPLC)” value is given as 80.44 min.

As for `CC[C@@H](C)[C@@H](NC(=O)[C@@H](CC(C)C)NC(=O)[C@@H](CCCCN)NC(=O)[C@@H](CC(C)C)NC(=O)[C@@H](CC(C)C)NC(=O)[C@H](NC(=O)[C@@H](CCCCN)NC(=O)[C@@H](CC(C)C)NC(=O)[C@@H](CCCCN)NC(=O)[C@@H](CCCCN)NC(=O)[C@@H](CCCCN)NC(=O)[C@@H](CCCCN)NC(=O)[C@@H](CC(C)C)NC(=O)[C@@H](CCCCN)NC(=O)[C@@H](CO)NC(=O)[C@@H](Cc1ccccc1)NC(=O)[C@H](NC(=O)[C@@H](CCCCN)NC(=O)[C@@H](CC(C)C)NC(=O)[C@@H](Cc1ccccc1)NC(=O)[C@@H](CO)NC(=O)[C@@H](CCCCN)NC(=O)[C@@H](Cc1c[nH]c2ccccc12)NC(=O)[C@@H](CCCCN)NC(C)=O)[C@H](C)O)[C@H](C)O)C(=O)N[C@H](CO)C(=O)N[C@H](CCCCN)C(N)=O` [Peptide D12, Ac-KWKSFLKTFSKLKKKKLKTLLKLISK-amide], the “MIC GM (geometric mean)” value in data set [1] came out at 5.2 µM (≈ 16.7 µg/mL). For the same compound, in data set [2], the Pseudomonas aeruginosa MICGM was found to be 3.9 µM. This compound yielded an HC50 at 18 h in data set [3] of 18.3 µM. In data set [4], the “MIC GM (geometric mean)” value is 1.9 µM (≈ 6.09 µg/mL) and the Acinetobacter baumannii MICGM came out at 1.9 µM.

`CC[C@@H](C)[C@@H](NC(=O)[C@@H](C)NC(=O)[C@@H](CCCCN)NC(=O)[C@@H](CC(C)C)NC(=O)[C@@H](CC(C)C)NC(=O)[C@H](NC(=O)[C@@H](CCCCN)NC(=O)[C@@H](CC(C)C)NC(=O)[C@@H](CCCCN)NC(=O)[C@@H](CCCCN)NC(=O)[C@@H](CCCCN)NC(=O)[C@@H](CCCCN)NC(=O)[C@@H](CC(C)C)NC(=O)[C@@H](CCCCN)NC(=O)[C@@H](CO)NC(=O)[C@@H](Cc1ccccc1)NC(=O)[C@H](NC(=O)[C@@H](CCCCN)NC(=O)[C@@H](CC(C)C)NC(=O)[C@@H](Cc1ccccc1)NC(=O)[C@@H](CO)NC(=O)[C@@H](CCCCN)NC(=O)[C@@H](Cc1c[nH]c2ccccc12)NC(=O)[C@@H](CCCCN)NC(C)=O)[C@H](C)O)[C@H](C)O)C(=O)N[C@H](CO)C(=O)N[C@H](CCCCN)C(N)=O` [Peptide D13, Ac-KWKSFLKTFSKLKKKKLKTLLKAISK-amide]: the “MIC GM (geometric mean)” value in data set [1] came out at 8.6 µM (≈ 27.2 µg/mL). This compound also came in with a Pseudomonas aeruginosa MICGM in data set [2] of 2.5 µM. The compound also showed an HC50 at 18 h in data set [3] of 106 µM. Besides, in data set [4], the “MIC GM (geometric mean)” value amounted to 1.0 µM (≈ 3.16 µg/mL) and the Acinetobacter baumannii MICGM is 1 µM.

As for “D-NAL: enantiomer of NAD, SEQ ID NO:25 (KWKSFLKTFKSAAKTVLHTALKAISS; not fully specified; D-amino acids)”, in data set [6], the “PA (peptide self-association parameter)” value worked out at 4.1.

Consider “D-V681: D-enantiomer of V681 (KWKSFLKTFKSAVKTVLHTALKAISS; all D-amino acids)”, for which, in data set [6], the “PA (peptide self-association parameter)” value is listed as 7.2.

With “PAL: V681 with L-Ala at position 11, SEQ ID NO:14 (KWKSFLKTFKAAVKTVLHTALKAISS)”, in data set [5], the “Change in hydrophobicity (retention time) relative to PVL” value is given as “+0.45 min”.

For the compound “PKL: V681 with L-Lys at position 11, SEQ ID NO:17 (KWKSFLKTFKKAVKTVLHTALKAISS)”, the “Change in hydrophobicity (retention time) relative to PVL” value in data set [5] was -2.29 min.
